# Assay results published in patent US20180153860A1, “METHODS OF DOSE ADMINISTRATION FOR TREATING OR PREVENTING COGNITIVE IMPAIRMENT USING INDANE ACETIC ACID DERIVATIVES” (T3D Therapeutics, Inc., priority 2016, published 2018).
# How the values were obtained:
# [1] = test system: intracerebral (i.c.) Streptozotocin (STZ) rat model of Alzheimer's disease; test: Intracerebral Streptozotocin rat model of Alzheimer's disease, Morris Water Maze testing; format: in vivo, Long Evans rats; settings: 0.25 mg/kg oral gavage every other day for 14 days; control and STZ rats; tested 11 days post-dosing
# Protocol: The experimental rat model of Alzheimer's disease used in Table 7 involves intracerebral (i.c.) treatment with Streptozotocin (STZ), to cause brain metabolic dysfunction and insulin resistance as occurs in human sporadic Alzheimer' disease, with minimal or no systemic side-effects. Long Evans 4-week old male and female rats (8-12/group) were anesthetized by intraperitoneal (i.p.) injection of ketamine (100 mg/kg) plus xylazine (10 mg/kg). After shaving and cleaning (betadine x2 followed by 70% ethanol) the scalps, the rats were positioned in a stereotaxic frame and a midline incision was made. With subcutaneous tissue and skeletal muscle separated and retracted with small surgical hooks, the bregma and lambda areas were cleaned with 3% H2O2 soaked cotton swabs. […]
# T3D-959 administration (0.25 mg/kg) to control and STZ rats was by oral gavage every other day for a period of 14-days. […] The latency to locate the platform was measured. Spatial memory and orientation were assessed by requiring the rat to locate the hidden platform from different entry points in the maze. […]
# Data were analyzed by first calculating area under curves for each set of 3 trials, then averaging the AUC results within-group. […] Data were analyzed by 1-way ANOVA with Fisher post-tests. […]
# [2] = test system: mild to moderate severity Alzheimer's patients (MMSE=14-26); test: ADAS-cog11 score change in Alzheimer's patients after 14-day treatment; format: in vivo, human
# Protocol: ADAS-cog11 score change from day 1 to day 14 (D1-D14), the end of 2-week treatment is compared to the ADAS-cog 1 from day 1 to day 21 (D1-D21), 7-days post treatment follow-up. With ADAS-cog 1 test scoring a greater negative score denotes greater cognitive improvement. Drug treatment of mild to moderate severity Alzheimer's patients (MMSE=14-26) with T3D-959 was for 14 days q.d. at 3 mg, 10 mg, 30 mg or 90 mg (n=number of subjects evaluable at each dose).
structure (smiles),measurement,setting,value
CCc1oc(-c2ccc(OC)cc2)nc1CCOc1ccc2c(c1)CC[C@H]2CC(=O)[O-].[Na+] [Example T3D-959],"Morris Water Maze latency to locate the platform (spatial localization and memory, AUC of trials)",[1],benefited control as well as STZ-exposed rats
same,subjects who exhibited an improved ADAS-cog11 test score,"[2]; 10 mg cohort, 14 days q.d.",5 of 9
same,ADAS-cog11 score change D1-D14 compared to D1-D21,"[2]; 14 days q.d. at 3 mg, 10 mg, 30 mg or 90 mg, D21 = 7-days post treatment follow-up",cognitive improvement lasting beyond the end of treatment
